# Measured values taken from patent publication US12528814B2, “Bifunctional degraders of interleukin-1 receptor-associated kinases and therapeutic use thereof” (NURIX THERAPEUTICS, INC., priority 2020, dated 2026).
# Read-outs that look alike come from different tables or passages of the source.
# How the values were obtained:
# [1] = target: T1, IRAK4 (Homo sapiens (Human), UniProt Q9NWZ3); assay: IRAK4 Biochemical HTRF Kinase Assay; conditions: read-out: IRAK4 HTRF biochemical: IC50
# Summary of the method: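 HTRF KinEASE STK S1 format measuring IRAK4 phosphorylation of biotinylated peptide; reaction solution of 5 μM STK-S1, 10 mM ATP, 10 mM MgCl2 added (stock, to 10 μl final), 90 min at ambient temperature, detection 60 min. IC50 from sixteen-point duplicate curves by non-linear regression.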
# Target sequence in this assay (Q9NWZ3 whole entry, species assumed): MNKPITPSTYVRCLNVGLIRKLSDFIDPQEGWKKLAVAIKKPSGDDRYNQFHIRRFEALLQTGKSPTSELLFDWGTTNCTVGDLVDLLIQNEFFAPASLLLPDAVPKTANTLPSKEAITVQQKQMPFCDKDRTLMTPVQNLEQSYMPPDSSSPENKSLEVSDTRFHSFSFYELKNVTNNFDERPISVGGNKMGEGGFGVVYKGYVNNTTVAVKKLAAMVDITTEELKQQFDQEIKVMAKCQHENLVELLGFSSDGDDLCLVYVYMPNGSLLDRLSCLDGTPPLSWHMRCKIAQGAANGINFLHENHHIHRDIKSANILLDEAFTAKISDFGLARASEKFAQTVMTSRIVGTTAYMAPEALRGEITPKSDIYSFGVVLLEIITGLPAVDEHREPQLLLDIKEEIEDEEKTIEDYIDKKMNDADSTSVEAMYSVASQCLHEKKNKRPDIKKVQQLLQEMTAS
# [2] = target: T1, IRAK4; assay: IRAK4 Degradation HiBiT Assay; conditions: HiBiT-tagged Jurkat cells, 4 hrs; for Dmax: Jurkat; for DC50: read-out: Cellular IRAK4 HiBiT: DC50
# Target sequence in this assay (Q9NWZ3 whole entry): as the sequence (Q9NWZ3 whole entry, species assumed) above
# Procedure: Compound dilution series (11-point, 3.16-fold dilutions in DMSO, columns 1-11 and 12-22) at 500× the final required concentrations were prepared in Labcyte LDV 384-well plates (cat. no. LP-0200) using a Labcyte Echo 550 Liquid Handler. The 500× solutions ranged from 5 mM to 0.5 μM (final assay concentration range 10 μM to 0.1 nM). Using the Echo, the 500× solutions were stamped into white, 384-well assay plates (Corning, cat. no. 3570) at 60 nL/well. […] C-terminal HiBiT-tagged Jurkat cells (polyclonal cell line or clone 8D5) were plated at 1×10^6 cells/mL, 30 μL/well (3×10^4 cells/well) in complete RPMI (10% FBS, 1% L-glutamine). Cells were incubated for 4 hrs at 32° C./6% CO2.
# Following incubation, 30 uL of complete Nano-Glo HiBiT Lytic Detection Reagent (Nano-Glo HiBiT Lytic Buffer with 1:50 Nano-Glo HiBiT Lytic Substrate and 1:100 LgBiT Protein; Promega cat. no. N3040) was added. Cells were further incubated for 10 min at room temperature (RT). Luminescence units (LU) were read on an EnVision plate reader (Perkin Elmer, 0.1 sec per well). Percent IRAK4 remaining per sample was calculated as follows:
# Using Graphpad Prism, % IRAK4 remaining values were plotted as a function of compound concentration.
# [3] = read-out: Cellular IRAK4 HiBiT: Dmax, Table 4
# [4] = read-out: Cellular IRAK4 HiBiT: Dmax, Table 5, multiple runs
IC50 ([1]; Table 4),"IC50 ([1]; Table 5, multiple runs)","Dmax [2, 3]","Dmax [2, 4]",DC50 ([2]; Table 4),"DC50 ([2]; Table 5, multiple runs)",Structure (SMILES)
1 nM,1 nM,81%,85%,82.7 nM,86.9 nM,"CC(C)Nc1cc(-c2ccc3cc(C#N)cnn23)ncc1-c1nnc(N2CCN(C(=O)CN3CCC4(CC3)CN(c3ccc5c(c3)C(=O)N(C3CCC(=O)NC3=O)C5=O)C4)CC2)s1 (centres unmarked) [Example 15, 7-(5-(5-(4-(2-(2-(2-(2,6-dioxopiperidin-3-yl)-1,3-dioxoisoindolin-5-yl)-2,7-diazaspiro[3.5]nonan-7-yl)acetyl)piperazin-1-yl)-1,3,4-thiadiazol-2-yl)-4-(isopropylamino)pyridin-2-yl)pyrrolo[1,2-b]pyridazine-3-carbonitrile]"
,1.5 nM,,89%,,429 nM,"CNc1cc(-c2ccc3cc(C#N)cnn23)ncc1-c1nnc(C23CCC(NC(=O)[C@H]4CC[C@H]4C(=O)N[C@H](C(=O)N4C[C@H](O)C[C@H]4C(=O)N[C@@H](C)c4ccc(-c5scnc5C)cc4)C(C)(C)C)(CC2)CC3)s1 (mixture of isomers) [Example 144, (1RS,2SR)—N1-(4-(5-(6-(3-cyanopyrrolo[1,2-b]pyridazin-7-yl)-4-(methylamino)pyridin-3-yl)-1,3,4-thiadiazol-2-yl)bicyclo[2.2.2]octan-1-yl)-N2—((S)-1-((2S,4R)-4-hydroxy-2-(((S)-1-(4-(4-methylthiazol-5-yl)phenyl)ethyl)carbamoyl)pyrrolidin-1-yl)-3,3-dimethyl-1-oxobutan-2-yl)cyclobutane-1,2-dicarboxamide]"
,1.1 nM,,,,> 9980 nM,"CNc1cc(-c2ccc3cc(C#N)cnn23)ncc1-c1nnc(N2CCCC3(CN(Cc4ccc5c(c4)C(=O)N(C4CCC(=O)NC4=O)C5=O)C3)C2)s1 (centres unmarked) [Example 122, 7-(5-(5-(2-((2-(2,6-dioxopiperidin-3-yl)-1,3-dioxoisoindolin-5-yl)methyl)-2,6-diazaspiro[3.5]nonan-6-yl)-1,3,4-thiadiazol-2-yl)-4-(methylamino)pyridin-2-yl)pyrrolo[1,2-b]pyridazine-3-carbonitrile]"
,0.5 nM,,103%,,29.3 nM,"CNc1cc(-c2ccc3cc(C#N)cnn23)ncc1-c1nnc([C@H]2CC[C@H](N(C)CC3CCN(c4ccc5c(=O)n(C6CCC(=O)NC6=O)ccc5c4)CC3)CC2)s1 (some centres unmarked) [Example 170, 7-(5-(5-((1r,4r)-4-(((1-(2-(2,6-dioxopiperidin-3-yl)-1-oxo-1,2-dihydroisoquinolin-6-yl)piperidin-4-yl)methyl)(methyl)amino)cyclohexyl)-1,3,4-thiadiazol-2-yl)-4-(methylamino)pyridin-2-yl)pyrrolo[1,2-b]pyridazine-3-carbonitrile]"
,0.4 nM,,77%,,12.9 nM,"CNc1cc(-c2ccc3cc(C#N)cnn23)ncc1-c1nnc([C@H]2CC[C@H](N(C)C[C@@H]3CCN(c4ccc5c(c4)C(=O)N(C4CCC(=O)NC4=O)C5=O)C3)CC2)s1 (stereo partly drawn) [Example 171, 7-(5-(5-((1S,4r)-4-((((3S)-1-(2-(2,6-dioxopiperidin-3-yl)-1,3-dioxoisoindolin-5-yl)pyrrolidin-3-yl)methyl)(methyl)amino)cyclohexyl)-1,3,4-thiadiazol-2-yl)-4-(methylamino)pyridin-2-yl)pyrrolo[1,2-b]pyridazine-3-carbonitrile]"
,0.8 nM,,109%,,15.5 nM,"CNc1cc(-c2ccc3cc(C#N)cnn23)ncc1-c1nnc(N2CCN(C(=O)N3CCN(Cc4ccc5c(c4)C(=O)N(C4CCC(=O)NC4=O)C5=O)CC3)CC2)s1 (centres unmarked) [Example 156, 7-(5-(5-(4-(4-((2-(2,6-dioxopiperidin-3-yl)-1,3-dioxoisoindolin-5-yl)methyl)piperazine-1-carbonyl)piperazin-1-yl)-1,3,4-thiadiazol-2-yl)-4-(methylamino)pyridin-2-yl)pyrrolo[1,2-b]pyridazine-3-carbonitrile]"
,0.9 nM,,96%,,71.4 nM,"CNc1cc(-c2ccc3cc(C#N)cnn23)ncc1-c1nnc(N2CCC(C3CCN(C(=O)c4ccc5c(c4)C(=O)N(C4CCC(=O)NC4=O)C5=O)CC3)CC2)s1 (centres unmarked) [Example 184, 7-(5-(5-(1′-(2-(2,6-dioxopiperidin-3-yl)-1,3-dioxoisoindoline-5-carbonyl)-[4,4′-bipiperidin]-1-yl)-1,3,4-thiadiazol-2-yl)-4-(methylamino)pyridin-2-yl)pyrrolo[1,2-b]pyridazine-3-carbonitrile]"
,2.2 nM,,60%,,46.3 nM,"CNc1cc(-c2ccc3cc(C#N)cnn23)ncc1-c1nnc([C@H]2CC[C@@H](NC(=O)CCOCCNc3cccc4c3C(=O)N(C3CCC(=O)NC3=O)C4=O)CC2)s1 (some centres unmarked) [Example 116, N-((1s,4s)-4-(5-(6-(3-cyanopyrrolo[1,2-b]pyridazin-7-yl)-4-(methylamino)pyridin-3-yl)-1,3,4-thiadiazol-2-yl)cyclohexyl)-3-(2-((2-(2,6-dioxopiperidin-3-yl)-1,3-dioxoisoindolin-4-yl)amino)ethoxy)propanamide]"
6 nM,6 nM,98%,98%,240 nM,220 nM,"Cc1ncsc1-c1ccc([C@H](C)NC(=O)[C@@H]2C[C@@H](O)CN2C(=O)[C@@H](NC(=O)CCCCCC(=O)N2CCN(c3nnc(-c4cnc(-c5ccc6cc(C#N)cnn56)cc4NC(C)C)s3)CC2)C(C)(C)C)cc1 [Example 37, (2S,4R)-1-((S)-2-(7-(4-(5-(6-(3-cyanopyrrolo[1,2-b]pyridazin-7-yl)-4-(isopropylamino)pyridin-3-yl)-1,3,4-thiadiazol-2-yl)piperazin-1-yl)-7-oxoheptanamido)-3,3-dimethylbutanoyl)-4-hydroxy-N—((S)-1-(4-(4-methylthiazol-5-yl)phenyl)ethyl)pyrrolidine-2-carboxamide]"
0.95 nM,0.8 nM,109%,111%,5.1 nM,16.9 nM,"CNc1cc(-c2ccc3cc(C#N)cnn23)ncc1-c1nnc([C@H]2CC[C@H](NC(=O)CN3CCN(c4ccc5c(c4)C(=O)N(C4CCC(=O)NC4=O)C5=O)CC3)CC2)s1 (some centres unmarked) [Example 65, N-((1r,4r)-4-(5-(6-(3-cyanopyrrolo[1,2-b]pyridazin-7-yl)-4-(methylamino)pyridin-3-yl)-1,3,4-thiadiazol-2-yl)cyclohexyl)-2-(4-(2-(2,6-dioxopiperidin-3-yl)-1,3-dioxoisoindolin-5-yl)piperazin-1-yl)acetamide]"
,0.8 nM,,116%,,65.5 nM,"CNc1cc(-c2ccc3cc(C#N)cnn23)ncc1-c1nnc([C@H]2CC[C@H](NC(=O)C3CN(C4CCN(c5ccc6c(c5)C(=O)N(C5CCC(=O)NC5=O)C6=O)CC4)C3)CC2)s1 (some centres unmarked) [Example 138, N-((1r,4r)-4-(5-(6-(3-cyanopyrrolo[1,2-b]pyridazin-7-yl)-4-(methylamino)pyridin-3-yl)-1,3,4-thiadiazol-2-yl)cyclohexyl)-1-(1-(2-(2,6-dioxopiperidin-3-yl)-1,3-dioxoisoindolin-5-yl)piperidin-4-yl)azetidine-3-carboxamide]"
,0.8 nM,,104%,,32 nM,"CNc1cc(-c2ccc3cc(C#N)cnn23)ncc1-c1nnc([C@H]2CC[C@H](N(C)C(=O)C3CCN(c4ccc5c(c4)C(=O)N(C4CCC(=O)NC4=O)C5=O)CC3)CC2)s1 (some centres unmarked) [Example 169, N-((1r,4r)-4-(5-(6-(3-cyanopyrrolo[1,2-b]pyridazin-7-yl)-4-(methylamino)pyridin-3-yl)-1,3,4-thiadiazol-2-yl)cyclohexyl)-1-(2-(2,6-dioxopiperidin-3-yl)-1,3-dioxoisoindolin-5-yl)-N-methylpiperidine-4-carboxamide]"
,1.5 nM,,89%,,126 nM,"CNc1cc(-c2ccc3cc(C#N)cnn23)ncc1-c1nnc(N2CCC(C3CCN(C(=O)CN4CCN(c5ccc6c(c5)C(=O)N(C5CCC(=O)NC5=O)C6=O)CC4)CC3)CC2)s1 (centres unmarked) [Example 185, 7-(5-(5-(1′-(2-(4-(2-(2,6-dioxopiperidin-3-yl)-1,3-dioxoisoindolin-5-yl)piperazin-1-yl)acetyl)-[4,4′-bipiperidin]-1-yl)-1,3,4-thiadiazol-2-yl)-4-(methylamino)pyridin-2-yl)pyrrolo[1,2-b]pyridazine-3-carbonitrile]"
,0.5 nM,,91%,,19.1 nM,"CNc1cc(-c2ccc3cc(C#N)cnn23)ncc1-c1nnc(N2CCN(C(=O)C3CC4(CCN(c5ccc6c(c5)C(=O)N(C5CCC(=O)NC5=O)C6=O)C4)C3)CC2)s1 (centres unmarked) [Example 175, 7-(5-(5-(4-(6-(2-(2,6-dioxopiperidin-3-yl)-1,3-dioxoisoindolin-5-yl)-6-azaspiro[3.4]octane-2-carbonyl)piperazin-1-yl)-1,3,4-thiadiazol-2-yl)-4-(methylamino)pyridin-2-yl)pyrrolo[1,2-b]pyridazine-3-carbonitrile]"

Structure (SMILES),IC50 ([1]; Table 4),"IC50 ([1]; Table 5, multiple runs)","Dmax [2, 3]","Dmax [2, 4]",DC50 ([2]; Table 4),"DC50 ([2]; Table 5, multiple runs)"
"CNc1cc(-c2ccc3cc(C#N)cnn23)ncc1-c1nnc(N2CC3CCC(C2)N3C(=O)C[C@H](NC(=O)[C@@H]2C[C@@H](O)CN2C(=O)[C@@H](NC(=O)C2(F)CC2)C(C)(C)C)c2ccc(-c3scnc3C)cc2)s1 [Example 180, (2S,4R)—N-((1S)-3-(3-(5-(6-(3-cyanopyrrolo[1,2-b]pyridazin-7-yl)-4-(methylamino)pyridin-3-yl)-1,3,4-thiadiazol-2-yl)-3,8-diazabicyclo[3.2.1]octan-8-yl)-1-(4-(4-methylthiazol-5-yl)phenyl)-3-oxopropyl)-1-((S)-2-(1-fluorocyclopropane-1-carboxamido)-3,3-dimethylbutanoyl)-4-hydroxypyrrolidine-2-carboxamide]",,0.5 nM,,110%,,91.6 nM
